# Laboratory results reported in ChEMBL document CHEMBL1201862, “PubChem BioAssay data set” (2004).
#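 Grown in 96-well plates, cells were treated for 48 hours with each compound at five concentrations. Insufficient inhibition: endpoint recorded as highest concentration tested. At the GI50, growth is halved.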 Active and inactive are the calls of the source. Cut-off read from the data, not from the text of the source: active = GI50 up to about 1.1 µM and inactive = higher.
# Columns and labels:
# Assay in all cases: DTP human tumour cell line panel, 48 h
# [1] = system: 786-0
# [2] = system: A498
# [3] = system: A549
# [4] = system: ACHN
# [5] = system: BT-549
# [6] = system: CCRF-CEM
# [7] = system: COLO 205
# [8] = system: DU-145
# [9] = system: EKVX
# [10] = system: HCC 2998
# [11] = system: HCT-116
# [12] = system: HCT-15
# [13] = system: HL-60
# [14] = system: HOP-62
# [15] = system: HOP-92
# [16] = system: HT-29
# [17] = system: Hs-578T
# [18] = system: IGROV-1
# [19] = system: K562
# [20] = system: KM12
# [21] = system: LOX IMVI
# [22] = system: M14
# [23] = system: MDA-MB-231
# [24] = system: MDA-MB-435
# [25] = system: MDA-N
# [26] = system: MOLT-4
# [27] = system: Malme-3M
# [28] = system: NCI-H226
# [29] = system: NCI-H23
# [30] = system: NCI-H460
# [31] = system: NCI-H522
# [32] = system: NCI/ADR-RES
# [33] = system: OVCAR-3
# [34] = system: OVCAR-4
# [35] = system: OVCAR-5
# [36] = system: OVCAR-8
# [37] = system: PC-3
# [38] = system: RPMI-8226
# [39] = system: RXF 393
# [40] = system: SF-268
# [41] = system: SF-295
# [42] = system: SF-539
# [43] = system: SK-MEL-28
# [44] = system: SK-MEL-2
# [45] = system: SK-MEL-5
# [46] = system: SK-OV-3
# [47] = system: SN12C
# [48] = system: SNB-19
# [49] = system: SNB-75
# [50] = system: SR
# [51] = system: SW-620
# [52] = system: T47D
# [53] = system: TK-10
# [54] = system: U-251
# [55] = system: UACC-257
# [56] = system: UACC-62
# [57] = system: UO-31
# [58] = system: CAKI-1
# [59] = system: MCF7
compound,measurement,setting,value
C[C@]12C=CC(=O)C=C1CC[C@@H]1[C@@H]2CC[C@@]2(C)[C@H]1CC[C@]2(O)C(N)=O,GI50,[1],> 100 µM (inactive)
same,GI50,[2],> 100 µM (inactive)
same,GI50,[3],> 100 µM (inactive)
same,GI50,[4],> 100 µM (inactive)
same,GI50,[5],> 100 µM (inactive)
same,GI50,[6],> 100 µM (inactive)
same,GI50,[7],> 100 µM (inactive)
same,GI50,[8],> 100 µM (inactive)
same,GI50,[9],> 100 µM (inactive)
same,GI50,[10],> 100 µM (inactive)
same,GI50,[11],> 100 µM (inactive)
same,GI50,[12],> 100 µM
same,GI50,[13],> 100 µM (inactive)
same,GI50,[14],> 100 µM (inactive)
same,GI50,[15],> 100 µM (inactive)
same,GI50,[16],> 100 µM (inactive)
same,GI50,[17],> 100 µM (inactive)
same,GI50,[18],> 100 µM (inactive)
same,GI50,[19],> 100 µM (inactive)
same,GI50,[20],> 100 µM (inactive)
same,GI50,[21],> 100 µM (inactive)
same,GI50,[22],> 100 µM (inactive)
same,GI50,[23],> 100 µM (inactive)
same,GI50,[24],> 100 µM (inactive)
same,GI50,[25],> 100 µM (inactive)
same,GI50,[26],> 100 µM (inactive)
same,GI50,[27],> 100 µM (inactive)
same,GI50,[28],> 100 µM (inactive)
same,GI50,[29],> 100 µM (inactive)
same,GI50,[30],> 100 µM (inactive)
same,GI50,[31],> 100 µM (inactive)
same,GI50,[32],> 100 µM (inactive)
same,GI50,[33],> 100 µM (inactive)
same,GI50,[34],> 100 µM (inactive)
same,GI50,[35],> 100 µM (inactive)
same,GI50,[36],> 100 µM (inactive)
same,GI50,[37],> 100 µM (inactive)
same,GI50,[38],> 100 µM (inactive)
same,GI50,[39],> 100 µM (inactive)
same,GI50,[40],> 100 µM (inactive)
same,GI50,[41],> 100 µM (inactive)
same,GI50,[42],> 100 µM (inactive)
same,GI50,[43],> 100 µM (inactive)
same,GI50,[44],> 100 µM (inactive)
same,GI50,[45],> 100 µM (inactive)
same,GI50,[46],> 100 µM (inactive)
same,GI50,[47],> 100 µM (inactive)
same,GI50,[48],> 100 µM (inactive)
same,GI50,[49],> 100 µM (inactive)
same,GI50,[50],> 100 µM (inactive)
same,GI50,[51],> 100 µM (inactive)
same,GI50,[52],> 100 µM (inactive)
same,GI50,[53],> 100 µM (inactive)
same,GI50,[54],> 100 µM (inactive)
same,GI50,[55],50.8 µM (inactive)
same,GI50,[56],> 100 µM (inactive)
same,GI50,[57],> 100 µM (inactive)
Oc1ccc2ccccc2c1/N=N/c1ccc(Cl)cc1,GI50,[1],34.6 µM (inactive)
same,GI50,[3],> 100 µM (inactive)
same,GI50,[4],> 100 µM (inactive)
same,GI50,[5],> 100 µM (inactive)
same,GI50,[58],> 100 µM (inactive)
same,GI50,[6],> 100 µM (inactive)
same,GI50,[7],53 µM (inactive)
same,GI50,[8],> 100 µM (inactive)
same,GI50,[9],> 100 µM (inactive)
same,GI50,[11],51.9 µM (inactive)
same,GI50,[12],> 100 µM
same,GI50,[13],> 100 µM (inactive)
same,GI50,[14],> 100 µM (inactive)
same,GI50,[15],> 100 µM (inactive)
same,GI50,[16],> 100 µM (inactive)
same,GI50,[17],> 100 µM (inactive)
same,GI50,[18],> 100 µM (inactive)
same,GI50,[19],> 100 µM (inactive)
same,GI50,[20],> 100 µM (inactive)
same,GI50,[21],24.8 µM (inactive)
same,GI50,[22],> 100 µM (inactive)
same,GI50,[23],26.9 µM (inactive)
same,GI50,[24],> 100 µM (inactive)
same,GI50,[25],> 100 µM (inactive)
same,GI50,[26],> 100 µM (inactive)
same,GI50,[27],> 100 µM (inactive)
same,GI50,[28],> 100 µM (inactive)
same,GI50,[29],> 100 µM (inactive)
same,GI50,[31],> 100 µM (inactive)
same,GI50,[32],> 100 µM (inactive)
same,GI50,[33],> 100 µM (inactive)
same,GI50,[34],> 100 µM (inactive)
same,GI50,[35],> 100 µM (inactive)
same,GI50,[36],> 100 µM (inactive)
same,GI50,[37],> 100 µM (inactive)
same,GI50,[38],> 100 µM (inactive)
same,GI50,[39],> 100 µM (inactive)
same,GI50,[40],> 100 µM (inactive)
same,GI50,[41],> 100 µM (inactive)
same,GI50,[43],> 100 µM (inactive)
same,GI50,[44],> 100 µM (inactive)
same,GI50,[45],> 100 µM (inactive)
same,GI50,[46],> 100 µM (inactive)
same,GI50,[47],> 100 µM (inactive)
same,GI50,[48],> 100 µM (inactive)
same,GI50,[49],> 100 µM (inactive)
same,GI50,[50],39.5 µM (inactive)
same,GI50,[51],> 100 µM (inactive)
same,GI50,[52],> 100 µM (inactive)
same,GI50,[53],> 100 µM (inactive)
same,GI50,[54],> 100 µM (inactive)
same,GI50,[55],> 100 µM (inactive)
same,GI50,[56],> 100 µM (inactive)
same,GI50,[57],> 100 µM (inactive)
Clc1ccc2c(NCCNC3CCCCC3)ccnc2c1,GI50,[1],5.47 µM (inactive)
same,GI50,[2],2.11 µM (inactive)
same,GI50,[3],13.6 µM (inactive)
same,GI50,[4],12.5 µM (inactive)
same,GI50,[5],10.5 µM (inactive)
same,GI50,[58],5.41 µM (inactive)
same,GI50,[6],2.81 µM (inactive)
same,GI50,[7],1.36 µM (inactive)
same,GI50,[8],16.1 µM (inactive)
same,GI50,[9],3.31 µM (inactive)
same,GI50,[11],5.96 µM (inactive)
same,GI50,[12],5.4 µM
same,GI50,[13],2.42 µM (inactive)
same,GI50,[14],11.9 µM (inactive)
same,GI50,[15],5.56 µM (inactive)
same,GI50,[16],3.15 µM (inactive)
same,GI50,[17],2.54 µM (inactive)
same,GI50,[18],11.8 µM (inactive)
same,GI50,[19],2.12 µM (inactive)
same,GI50,[20],6.28 µM (inactive)
same,GI50,[21],2.67 µM (inactive)
same,GI50,[22],1.77 µM (inactive)
same,GI50,[59],4.53 µM (inactive)
same,GI50,[23],9.62 µM (inactive)
same,GI50,[24],3.04 µM (inactive)
same,GI50,[25],2.29 µM (inactive)
same,GI50,[26],3.48 µM (inactive)
same,GI50,[27],1.87 µM (inactive)
same,GI50,[28],10.6 µM (inactive)
same,GI50,[29],15.7 µM (inactive)
same,GI50,[31],2.67 µM (inactive)
same,GI50,[32],11.4 µM (inactive)
same,GI50,[33],15 µM (inactive)
same,GI50,[34],11.6 µM (inactive)
same,GI50,[35],14.9 µM (inactive)
same,GI50,[36],10.7 µM (inactive)
same,GI50,[37],12.9 µM (inactive)
same,GI50,[38],3.44 µM (inactive)
same,GI50,[39],8.95 µM (inactive)
same,GI50,[40],9.64 µM (inactive)
same,GI50,[41],3.34 µM (inactive)
same,GI50,[43],1.86 µM (inactive)
same,GI50,[44],3.22 µM (inactive)
same,GI50,[45],1.62 µM (inactive)
same,GI50,[46],13.9 µM (inactive)
same,GI50,[47],16.2 µM (inactive)
same,GI50,[48],15.9 µM (inactive)
same,GI50,[49],4.63 µM (inactive)
same,GI50,[51],12.2 µM (inactive)
same,GI50,[52],4.2 µM (inactive)
same,GI50,[53],2.7 µM (inactive)
same,GI50,[54],5.5 µM (inactive)
same,GI50,[56],4.28 µM (inactive)
same,GI50,[57],2.95 µM (inactive)
